Data on 19 molecules can be found in US20160193206A1, “BET-PROTEIN-INHIBITING DIHYDROPYRIDOPYRAZINONES” (BAYER PHARMA AKTIENGESELLSCHAFT, priority 2012, published 2016).

Experiment [1] concerns the target T1, BRD4 bromo domain 2 [BRD4(2)] (Homo sapiens, UniProt O60885).
T1 construct: N-terminally His6-tagged BRD4(2) (amino acids 357-445); made in house; host or cells: E. coli
Put plainly: BRD4(2)/acetylated peptide H4 binding assay (TR-FRET). Conditions: inhibition of interaction between His6-tagged BRD4(2) (amino acids 357-445) and acetylated histone H4 peptide. An outline of the steps:
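Compounds (0.1 nM to 20 μM, 11 points, duplicates) preincubated 10 min at 22 °C with 100 nM His6-tagged BRD4(2) residues 357-445, then Ac-H4-biotin peptide added; incubated 1 h at 22 °C and 3 h-overnight at 4 °C. Eu/XL665 emission ratio normalised to DMSO and no-protein controls; 4-parameter IC50.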
(In general: Time-resolved FRET reads energy transfer from a long-lived donor to a nearby acceptor.)

The next experiment has as its system MOLM-13 cell line. Put plainly: MOLM-13 cell proliferation assay (alamarBlue). The experiment is classed as cell-based. As to conditions: Homo sapiens, inhibition of proliferation of MOLM-13 cells (acute myeloid leukaemia), 96 hours incubation. On the procedure:
In accordance with the invention, the substances were tested for their ability to inhibit the proliferation of the MOLM-13 cell linie (Deutsche Sammlung für Mikroorganismen und Zellkulturen [German Collection of Microorganisms and Cell Cultures], ACC 554; acute myeloid leukaemia). Cell viability was determined by means of the alamarBlue® reagent (Invitrogen) in a Victor X3 Multilabel Reader (Perkin Elmer). The excitation wavelength was 530 nm and the emission wavelength […].
The MOLM-13 cells were sown at a density of 4000 cells/well in 100 μl of growth medium on 96-well microtitre plates. After overnight incubation at 37° C., the fluorescence values were determined (CI values). The plates were then treated with various substance dilutions and incubated at 37° C. for 96 hours. Subsequently, the fluorescence values were determined (CO values). For the data analysis, the CI values were subtracted from the CO values and the results were compared between cells which had been treated with various dilutions of the substance or only with buffer solution. The IC50 values (substance concentration needed for 50% inhibition of cell proliferation) were calculated therefrom.

Experiment [2] has as its target T2, BRD4 bromo domain 1 [BRD4(1)] (Homo sapiens, UniProt O60885).
T2 construct: N-terminally His6-tagged BRD4(1) (amino acids 67-152); made in house; host or cells: E. coli
Put plainly: BRD4(1)/acetylated peptide H4 binding assay (TR-FRET). As to conditions: inhibition of interaction between His6-tagged BRD4(1) (amino acids 67-152) and acetylated histone H4 peptide. The gist of the method: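 IC50 came from a 4-parameter fit of the 665/620 nm emission ratio, normalised to DMSO and no-protein controls. His6-tagged BRD4(1) residues 67-152 (typically 10 nM final) was preincubated 10 min with compound (0.1 nM to 20 μM, duplicates), then exposed to Ac-H4-biotin peptide at 22 °C for 1 h and 4 °C for at least 3 h.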

For orientation: IC50 means the concentration that gives 50% inhibition. High values mean lower potency, low ones higher potency. For `COc1cc(C(=O)NC2CCN(C)CC2)ccc1Nc1ccc2c(n1)N(C1CCCC1)[C@H](C)C(=O)N2C` [Example 1, 4-{[(3R)-4-Cyclopentyl-1,3-dimethyl-2-oxo-1,2,3,4-tetrahydropyrido[2,3-b]pyrazin-6-yl]amino}-3-methoxy-N-(1-methylpiperidin-4-yl)benzamide], the IC50 came to 138 nM in experiment [1], 176 nM in the experiment on MOLM-13 cell line and 260 nM in experiment [2].
On to `COc1cc(C(=O)NCCN(C)C)ccc1Nc1ccc2c(n1)N(C(C)C)[C@H](C)C(=O)N2C` [Example 5, N-[2-(Dimethylamino)ethyl]-4-{[(3R)-1,3-dimethyl-2-oxo-4-(propan-2-yl)-1,2,3,4-tetrahydropyrido[2,3-b]pyrazin-6-yl]amino}-3-methoxybenzamide], for which the figures for the IC50 (with MOLM-13 cell line; in experiment [2]) were 503 nM and 93 nM, respectively.
The matching figures for `COc1cc(C(=O)NC2CCCC2)ccc1Nc1ccc2c(n1)N(C(C)C)[C@H](C)C(=O)N2C` [Example 6, N-Cyclopentyl-4-{[(3R)-1,3-dimethyl-2-oxo-4-(propan-2-yl)-1,2,3,4-tetrahydropyrido[2,3-b]pyrazin-6-yl]amino}-3-methoxybenzamide]: 762 nM and 255 nM.
For `C[C@@H]1C(=O)N(C)c2ccc(Nc3ccc(C(=O)N4CC5(CCS5(=O)=O)C4)cc3)nc2N1C1CCCC1` [Example 7, (3R)-4-Cyclopentyl-6-({4-[(1,1-dioxido-1-thia-6-azaspiro[3.3]hept-6-yl)carbonyl]phenyl}amino)-1,3-dimethyl-3,4-dihydropyrido[2,3-b]pyrazin-2(1H)-one] the same measures were 377 nM and 91 nM.
The matching figures for `COc1cc(C(=O)NCCN(C)C)ccc1Nc1ccc2c(n1)N(C1CCOCC1)[C@H](C)C(=O)N2C` [Example 46, N-[2-(Dimethyalmino)ethyl]-4-{[(3R)-1,3-dimethyl-2-oxo-4-(tetrahydro-2H-pyran-4-yl)-1,2,3,4-tetrahydropyrido[2,3-b]pyrazin-6-yl]amino}-3-methoxybenzamide]: 461 nM and 52 nM.
Take `C[C@@H]1C(=O)N(C)c2ccc(Nc3ccc(C(=O)N4CC5(COC5)C4)cc3)nc2N1C1CCCCCC1` [Example 93, (3R)-4-Cycloheptyl-1,3-dimethyl-6-{[4-(2-oxa-6-azaspiro[3.3]hept-6-ylcarbonyl)phenyl]amino}-3,4-dihydropyrido[2,3-b]pyrazin-2(1H)-one]: the IC50 in experiment [1] amounted to 90 nM; in experiment [2], 317 nM.
For `C[C@@H]1C(=O)N(C)c2ccc(Nc3ccc(S(=O)(=O)N(C)C)cc3)nc2N1Cc1ccccc1` [Example 94, 4-{[(3R)-4-Benzyl-1,3-dimethyl-2-oxo-1,2,3,4-tetrahydropyrido[2,3-b]pyrazin-6-yl]amino}-N,N-dimethylbenzenesulphonamide] the same measures were 111 nM and 156 nM.
Consider `C[C@@H]1C(=O)N(C)c2ccc(Nc3ccc(S(=O)(=O)N(C)C)cc3)nc2N1C1CCCCCC1` [Example 95, 4-{[(3R)-4-Cycloheptyl-1,3-dimethyl-2-oxo-1,2,3,4-tetrahydropyrido[2,3-b]pyrazin-6-yl]amino}-N,N-dimethylbenzenesulphonamide], for which the IC50 in experiment [1] came out at 126 nM; in experiment [2], 589 nM.
In the case of `CC(C)N1c2nc(Nc3ccc(C(=O)N[C@H]4CC[C@H](N5CCN(CC6CC6)CC5)CC4)cc3)ccc2N(C)C(=O)[C@H]1C` [Example 96, N-{trans-4-[4-(Cyclopropylmethyl)piperazin-1-yl]cyclohexyl}-4-{[(3R)-1,3-dimethyl-2-oxo-4-(propan-2-yl)-1,2,3,4-tetrahydropyrido[2,3-b]pyrazin-6-yl]amino}benzamide], the IC50 in experiment [1] was determined as 344 nM; in experiment [2], 438 nM.
The matching figures for `COc1cc(C(=O)NC2CCC(O)CC2)ccc1Nc1ccc2c(n1)N(C(C)C)[C@H](C)C(=O)N2C` (stereo partly drawn) [Example 97, 4-{[(3R)-1,3-Dimethyl-2-oxo-4-(propan-2-yl)-1,2,3,4-tetrahydropyrido[2,3-b]pyrazin-6-yl]amino}-N-(4-hydroxycyclohexyl)-3-methoxybenzamide]: 117 nM and 261 nM.
`CC(C)N1c2nc(Nc3ccc(C(=O)NC4CCN(C)CC4)cc3)ccc2N(C)C(=O)[C@H]1C` [Example 98, 4-{[(3R)-1,3-Dimethyl-2-oxo-4-(propan-2-yl)-1,2,3,4-tetrahydropyrido[2,3-b]pyrazin-6-yl]amino}-N-(1-methylpiperidin-4-yl)benzamide]: the IC50 in experiment [1] is 98 nM; in experiment [2], 281 nM.
Consider `COCCN1c2nc(Nc3ccc(C(=O)NC4CCN(C)CC4)cc3)ccc2N(C)C(=O)C1C` (stereo not drawn) [Example 104, 4-{[4-(2-Methoxyethyl)-1,3-dimethyl-2-oxo-1,2,3,4-tetrahydropyrido[2,3-b]pyrazin-6-yl]amino}-N-(1-methylpiperidin-4-yl)benzamide], for which the values for the IC50 in experiment [1] and in experiment [2] were 217 nM and 621 nM, respectively.
The matching figures for `COCCN1c2nc(Nc3ccc(C(=O)N[C@H]4CC[C@H](N5CCN(CC6CC6)CC5)CC4)cc3)ccc2N(C)C(=O)C1C` (stereo partly drawn) [Example 105, N-{trans-4-[4-(Cyclopropylmethyl)piperazin-1-yl]cyclohexyl}-4-{[4-(2-methoxyethyl)-1,3-dimethyl-2-oxo-1,2,3,4-tetrahydropyrido[2,3-b]pyrazin-6-yl]amino}benzamide]: 187 nM and 452 nM.
Consider `C[C@@H]1C(=O)N(C)c2ccc(Nc3ccc(S(=O)(=O)N(C)C)cc3)nc2N1C1CCN(C(=O)OC(C)(C)C)CC1` [Example 106, tert-Butyl 4-[(3R)-6-{[4-(dimethylsulphamoyl)phenyl]amino}-1,3-dimethyl-2-oxo-2,3-dihydropyrido[2,3-b]pyrazin-4(1H)-yl]piperidine-1-carbonate], for which the results for the IC50 in experiment [1] and in experiment [2] were 463 nM and 632 nM, respectively.
On to `C[C@@H]1C(=O)N(C)c2ccc(Nc3ccc(S(=O)(=O)NC4CCN(C)CC4)cc3)nc2N1c1ccccc1` [Example 108, 4-{[(3R)-1,3-Dimethyl-2-oxo-4-phenyl-1,2,3,4-tetrahydropyrido[2,3-b]pyrazin-6-yl]amino}-N-(1-methylpiperidin-4-yl)benzenesulphonamide], for which the IC50 in experiment [1] came out at 239 nM; in experiment [2], 63 nM.
With `C[C@@H]1C(=O)N(C)c2ccc(Nc3ccc(S(=O)(=O)N[C@H]4CC[C@H](N5CCN(CC6CC6)CC5)CC4)cc3)nc2N1Cc1ccccc1` [Example 109, 4-{[(3R)-4-Benzyl-1,3-dimethyl-2-oxo-1,2,3,4-tetrahydropyrido[2,3-b]pyrazin-6-yl]amino}-N-{trans-4-[4-(cyclopropylmethyl)piperazin-1-yl]cyclohexyl}benzenesulphonamide], the half-maximal inhibitory concentration (IC50) in experiment [1] was determined as 78 nM; in experiment [2] it was 36 nM.
The matching figures for `COc1cc(S(=O)(=O)NC2CCN(C)CC2)ccc1Nc1ccc2c(n1)N(C1CCOCC1)[C@H](C)C(=O)N2C` [Example 110, 4-{[(3R)-1,3-Dimethyl-2-oxo-4-(tetrahydro-2H-pyran-4-yl)-1,2,3,4-tetrahydropyrido[2,3-b]pyrazin-6-yl]amino}-3-methoxy-N-(1-methylpiperidin-4-yl)benzenesulphonamide]: 55 nM and 38 nM.
The matching figures for `COc1cc(S(=O)(=O)N[C@H]2CC[C@H](N3CCN(CC4CC4)CC3)CC2)ccc1Nc1ccc2c(n1)N(C1CCOCC1)[C@H](C)C(=O)N2C` [Example 111, N-{trans-4-[4-(Cyclopropylmethyl)piperazin-1-yl]cyclohexyl}-4-{[(3R)-1,3-dimethyl-2-oxo-4-(tetrahydro-2H-pyran-4-yl)-1,2,3,4-tetrahydropyrido[2,3-b]pyrazin-6-yl]amino}-3-methoxybenzenesulphonamide]: 130 nM and 29 nM.
As to `COc1cc(S(=O)(=O)N2CCN(C)CC2)ccc1Nc1ccc2c(n1)N(C1CCOCC1)[C@H](C)C(=O)N2C` [Example 112, (3R)-6-({2-Methoxy-4-[(4-methylpiperazin-1-yl)sulphonyl]phenyl}amino)-1,3-dimethyl-4-(tetrahydro-2H-pyran-4-yl)-3,4-dihydropyrido[2,3-b]pyrazin-2(1H)-one], the values for the IC50 in experiment [1] and in experiment [2] were 86 nM and 106 nM, respectively.
